Results on 17 compounds are retold here after patent US10233180B2, “Substituted nitrogen-containing heterocyclic derivatives, pharmaceutical compositions comprising the same and applications of antitumor thereof” (ZHEJIANG UNIVERSITY, priority 2014, dated 2019).

Test [1] concerns Human ovarian cancer cell strain OVCAR-8. The experiment in a line: MTT assay, inhibition of tumor cell growth in vitro, 72 h. It is filed as cell-based. Conditions: Homo sapiens, OVCAR-8, MTT, read-out: Antitumor proliferative activities of tumor cell (IC50, μM) OVCAR-8. The procedure:
(§1) First, inhibitory activity on tumor proliferation in vitro is determined and the structure activity relationship is preliminarily studied, in which different solid tumor cell strains are selected for determining the antitumor activities in vitro of the synthesized compounds.
(§2) Cell strains: Human ovarian cancer cell strain (OVCAR8), colon adenocarcinoma cell strain (HCT-116)
Medium: OVCAR8: RPMI 1640+Fetal Bovine Serum
(§3) Preparing method of medicines: Dissolving the medicine in DMSO to make a 50 mM stock solution, and diluting it according to a certain ratio to obtain 5 different concentrations.
(§4) Two selected tumor cells OVCAR8 and HCT-116 are incubated at 37° C. in a 5% CO2 incubator, which are subcultured when cells grow up to a density of 70˜90% (adherent cells are subcultured after digesting by Duck's EDTA) for later experiments.
(§5) Compounds are dissolved and diluted by dimethyl sulfoxide (DMSO), and tumor cells OVCAR8 and HCT-116 are seeded in a 96-well plate at a density of 4000 cells/200 μl/well, 1 μl of the compounds are added to each well with the final concentration of 50 μM, 10 μM, 2 μM, 0.4 μM and 0.08 μM, which is incubated for 72 h at 37° C. in a 5% CO2 incubator with DMSO (1%) as blank control.
(§6) The calculating formula of cell inhibitory rate is: cell inhibitory rate %=(the OD value of the control group−the OD value of the medication group)/the OD value of the control group×100%, the half maximal inhibitory concentration (IC50) is obtained by Bliss method.
Background: Formazan colour is commonly taken as a measure of viable cells.

Test [2] concerns human colon cancer cell strain HCT-116. The description is as above. It is filed as cell-based. To be noted: Homo sapiens, HCT-116, MTT, read-out: Antitumor proliferative activities of tumor cell (IC50, μM) HCT-116 (converted). The method, then: as §1, §2
HCT-116: RPMI 1640+Fetal Bovine Serum
as §3, §4, §5, §6

The next test addresses T1, Akt1 (Homo sapiens, UniProt P31749).
T1 construct: purchased 32-021
The test can be described thus: AKT1/PKBα KinEASE FP Fluorescein Green Assay (fluorescence polarization kinase kit). The format is biochemical. To be noted: 1 h reaction, read-out: Inhibitory activities against Akt1 (IC50). The procedure: Second, method for determining the inhibitory activities of substituted nitrogen-containing heterocyclic derivatives in the present invention against Akt1 enzyme:
The inhibitory activities of compounds against AKT1/PKBα are determined by using AKT1/PKBα KinEASE™ FP Fluorescein Green Assay (Green fluorescence detection system of Kinase).
Principle adopted by the fluorescence polarization detection of protein kinase B is a competitive reaction: the phosphorylated tracers labeled with fluorescence will compete with unlabeled phosphorylated products produced by reacting with protein kinase B to combine anti-serine antibodies. […] However, in the reaction mixture containing phosphorylated products, fewer tracers will combine with antibodies (fluorescent tracers are replaced from the antibodies), and signals sent our occur depolarizing. Therefore, the change of polarization is directly related to the activity of protein kinase B in the reaction.
Each of 0.25 μl of compounds with a concentration of 50 μM and the positive control are added to a 384-well plate at room temperature, and each sample is provided with three parallel wells, and then 10 μl of STK Substrate 3 Working Solution, 5 μl of AKT1/PKBα Working Solution, 10 μl of ATP Working Solution are added to each sample respectively, the mixtures are slightly vibrated and shaked for a few minutes. Reaction is carried out just after the adding 10 μl of ATP Working Solution, from this time, reacting for 1 h. After 1 h, 5 μl of STK Stop Mix and 5 μl of STK Antibody Mix are added to each sample respectively to stop the reaction. The samples are maintained for 4 h at room temperature after adding is completed, the polarization values of samples are determined by fluorescence polarization of Microplate Reader (Detection of the signals is valid within 24 h), the inhibitory rate of compounds against the enzyme is calculated by polarization value, and thereby IC50 is calculated.
Experiment is set up four control groups at the same time, which are Buffer Control Wells, Tracer Control Wells, No Enzyme Wells and blank control of dimethyl sulfoxide, respectively. Thus obtained data are used to calculate the inhibitory rate (the preparation methods of above various solution required for determining the activities of compounds against enzyme refer to the specification of the kit of AKT1/PKBα KinEASE™ FP Fluorescein Green Assay Catalog #32-021).

T1 sequence (P31749 whole entry): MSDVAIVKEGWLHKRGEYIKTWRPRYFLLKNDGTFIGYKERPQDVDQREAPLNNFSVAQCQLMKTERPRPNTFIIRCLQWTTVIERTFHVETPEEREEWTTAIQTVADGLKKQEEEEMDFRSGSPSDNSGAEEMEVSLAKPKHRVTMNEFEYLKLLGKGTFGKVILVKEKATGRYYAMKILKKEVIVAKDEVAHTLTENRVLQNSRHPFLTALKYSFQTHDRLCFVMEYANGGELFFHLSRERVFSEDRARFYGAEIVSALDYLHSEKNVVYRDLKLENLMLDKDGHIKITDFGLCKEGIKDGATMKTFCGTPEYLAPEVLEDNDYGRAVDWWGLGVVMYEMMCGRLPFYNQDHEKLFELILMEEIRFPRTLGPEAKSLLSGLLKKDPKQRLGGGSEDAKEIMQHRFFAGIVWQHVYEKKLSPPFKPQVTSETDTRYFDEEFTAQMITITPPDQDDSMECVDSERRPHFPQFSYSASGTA

Consider `CNC(=O)CC1C[C@@H](c2ccc(F)c(F)c2)[C@H](NC(=O)c2cc(-c3c(Cl)cnn3C)c(Cl)o2)CN1` (stereo partly drawn) [Compound 105, 5-chloro-4-(4-chloro-1-methyl-1H-pyrazol-5-yl)-N-((3S,4S)-4-(3,4-difluorophenyl)-6-(2-(methylamido)-2-oxoethyl)piperidin-3-yl)furan-2-formamide], for which the results for the IC50 (in test [1]; in test [2]; at Akt1) were 1.94 µM, 0.56 µM and 0.051 µM, respectively.
Consider `Cn1ncc(Cl)c1-c1cnc(C(=O)N[C@@H]2CNCC[C@H]2c2ccc(Cl)c(C(F)(F)F)c2)cc1Cl` [Compound 95, 4-chloro-5-(4-chloro-1-methyl-1H-pyrazol-5-yl)-N-((3S,4S)-4-(4-chloro-3-(trifluoromethyl)phenyl)piperidin-3-yl)picolinamide], for which the IC50 (usually the concentration at which inhibition is half-maximal) in test [1] was 0.98 µM; in test [2] it was 0.95 µM; on Akt1, 0.017 µM.
The corresponding values for `Cn1ncc(Cl)c1-c1ccc(C(=O)N[C@@H]2CNCC[C@H]2c2cccc(F)c2)cc1N` [Compound 79, 3-amido-4-(4-chloro-1-methyl-1H-pyrazol-5-yl)-N-((3S,4S)-4-(3-fluorophenyl)piperidin-3-yl)benzamide] are 3.77 µM, 4.08 µM and 0.019 µM.
As for `Cn1ncc(Cl)c1-c1cc(C(=O)N[C@@H]2CNC(CCN3CCOCC3)C[C@H]2c2ccc(Cl)c(Cl)c2)oc1Cl` (stereo partly drawn) [Compound 109, 5-chloro-4-(4-chloro-1-methyl-1H-pyrazol-5-yl)-N-((3S,4S)-4-(3,4-dichlorophenyl)-6-(2-(morpholin-1-yl)ethyl)piperidin-3-yl)furan-2-formamide], the IC50 in test [1] was 1.3 µM; in test [2], 0.78 µM; at Akt1 it was 0.009 µM.
Take `Cc1cccc([C@H]2CCNC[C@@H]2NC(=O)c2cc(Cl)c(-c3ncnn3C)o2)c1` (racemic) [Compound 7, 4-chloro-5-(1-methyl-1H-1,2,4-triazol-5-yl)-N-(3,4-trans-4-(3-methylphenyl)piperidin-3-yl)furan-2-formamide]: the values for the IC50 (in test [1]; in test [2]; at Akt1) were 3.88 µM, 8.3 µM and 0.062 µM, respectively.
Taken in the same sequence, the figures for `Cn1nccc1-c1coc(C(=O)N[C@H]2CNCC[C@@H]2c2ccccc2)n1` (racemic) [Compound 19, 4-(1-methyl-1H-pyrazol-5-yl)-N-(3,4-trans-4-phenylpiperidin-3-yl)oxazole-2-formamide] were 9.83 µM, 4.56 µM and 0.082 µM.
As for `CCCc1cc(C(=O)N[C@H]2CNCC[C@@H]2c2cc(OC)cc(OC)c2)ccc1-c1c(Br)cnn1C` (racemic) [Compound 54, 3-n-propyl-4-(4-bromo-1-methyl-1H-pyrazol-5-yl)-N-(3,4-trans-4-(3,5-dimethoxyphenyl)piperidin-3-yl)phenyl formamide], the concentration for half-maximal inhibition (IC50) in test [1] is 13.3 µM; in test [2] it was 3.14 µM; at Akt1, 0.678 µM.
`CNC(=O)CC1C[C@@H](c2cccc(F)c2)[C@H](NC(=O)c2cc(Cl)c(-c3c(Cl)cnn3C)s2)CN1` (stereo partly drawn) [Compound 149, 4-chloro-5-(4-chloro-1-methyl-1H-pyrazol-5-yl)-N-((3S, 4S)-4-(3-fluorophenyl)-6-(2-(methylamido)-2-oxoethyl)piperidin-3-yl)thiophene-2-formamide]: the IC50 was 3.21 µM in test [1], 2.56 µM in test [2] and 0.007 µM on Akt1.
For `Cn1ncc(Cl)c1-c1cc(C(=O)N[C@@H]2CNC(CC(O)CO)C[C@H]2c2ccc(Cl)c(Cl)c2)oc1Cl` (stereo partly drawn) [Compound 112, 5-chloro-4-(4-chloro-1-methyl-1H-pyrazol-5-yl)-N-((3S,4S)-4-(3,4-dichlorophenyl)-6-(2,3-dihydroxypropyl)piperidin-3-yl)furan-2-formamide], the concentration for half-maximal inhibition (IC50) in test [1] is 0.33 µM; in test [2], 0.84 µM; on Akt1 it was 0.002 µM.
For `Cn1ncc(Cl)c1-c1cc(C(=O)N[C@@H]2CNC(CC(O)CO)C[C@H]2c2ccc(F)c(F)c2)oc1Cl` (stereo partly drawn) [Compound 128, 5-chloro-4-(4-chloro-1-methyl-1H-pyrazol-5-yl)-N-((3S,4S)-4-(3,4-difluorophenyl)-6-(2,3-dihydroxypropyl)piperidin-3-yl)furan-2-formamide], the results for the IC50 (in test [1]; in test [2]; on Akt1) were 0.92 µM, 0.95 µM and 0.0005 µM, respectively.
Regarding `CCc1cnn(C)c1-c1cc(C(=O)N[C@H]2CNCC[C@@H]2c2ccc(Cl)cc2)nc(C)n1` (racemic) [Compound 47, 2-methyl-6-(1-methyl-4-ethyl-1H-pyrazol-5-yl)-N-(3,4-trans-4-(4-chlorophenyl)piperidin-3-yl)pyrimidine-4-formamide], the results for the IC50 (in test [1]; in test [2]; at Akt1) were 5.57 µM, 3.11 µM and 0.216 µM, respectively.
Turning to `CNC(=O)CC1C[C@@H](c2ccc(Cl)c(Cl)c2)[C@H](NC(=O)c2cc(-c3c(Cl)cnn3C)c(Cl)o2)CN1` (stereo partly drawn) [Compound 118, 5-chloro-4-(4-chloro-1-methyl-1H-pyrazol-5-yl)-N-((3S,4S)-4-(3,4-dichlorophenyl)-6-(2-(methylamido)-2-oxoethyl)piperidin-3-yl)furan-2-formamide], the IC50 in test [1] was 4.02 µM; in test [2], 3.68 µM; at Akt1 it was 0.003 µM.
As to `CN(C)CCC1C[C@@H](c2ccc(Cl)c(Cl)c2)[C@H](NC(=O)c2cc(-c3c(Cl)cnn3C)c(Cl)o2)CN1` (stereo partly drawn) [Compound 107, 5-chloro-4-(4-chloro-1-methyl-1H-pyrazol-5-yl)-N-((3S,4S)-4-(3,4-dichlorophenyl)-6-(2-(dimethylamino)ethyl)piperidin-3-yl)furan-2-formamide], the IC50 in test [1] is 1.01 µM; in test [2], 1.08 µM; at Akt1 it was 0.014 µM.
The corresponding values for `Cn1ncc(Cl)c1-c1cc(C(=O)N[C@H]2CNCC[C@@H]2c2ccccc2)oc1Cl` (racemic) [Compound 29, 5-chloro-4-(4-chloro-1-methyl-1H-pyrazol-5-yl)-N-(3,4-trans-4-phenylpiperidin-3-yl)furan-2-formamide] are 1.12 µM, 8.67 µM and 0.062 µM.
For `Cn1ncc(Cl)c1-c1cc(C(=O)N[C@@H]2CNC(CCN3CCCC(O)C3)C[C@H]2c2ccc(Cl)c(Cl)c2)oc1Cl` (stereo partly drawn) [Compound 115, 5-chloro-4-(4-chloro-1-methyl-1H-pyrazol-5-yl)-N-((3S,4S)-4-(3,4-dichlorophenyl)-6-(2-(3-hydroxylpiperidin-1-yl)ethyl)piperidin-3-yl)furan-2-formamide], the values for the half-maximal inhibitory concentration (IC50) (in test [1]; in test [2]; on Akt1) were 0.78 µM, 0.56 µM and 0.0008 µM, respectively.
For the compound `Cc1cc(C(=O)N[C@@H]2CNCC[C@H]2c2ccc(F)c(F)c2)ncc1-c1c(Cl)cnn1C` [Compound 94, 5-(4-chloro-1-methyl-1H-pyrazol-5-yl)-N-((3S,4S)-4-(3,4-difluorophenyl)piperidin-3-yl)-4-methylpicolinamide], the IC50 in test [1] is 1.22 µM; in test [2], 0.89 µM; at Akt1, 0.007 µM.
`Cn1ncc(Cl)c1-c1cc(C(=O)N[C@@H]2CNC(CCn3cncn3)C[C@H]2c2ccc(Cl)c(Cl)c2)oc1Cl` (stereo partly drawn) [Compound 122, N-((3S,4S)-6-(2-(1H-1,2,4-triazol-1-yl)ethyl)-4-(3,4-dichlorophenyl)piperidin-3-yl)-5-chloro-4-(4-chloro-1-methyl-1H-pyrazol-5-yl)furan-2-formamide]: the IC50 in test [1] was 0.43 µM; in test [2] it was 1.02 µM; at Akt1, 0.002 µM.
